Experimental data as given in the NIST ThermoML archive (doi:10.1016/j.tca.2005.04.030).
± gives the expanded uncertainty stated by the source.

Assays:
[1] = 101.33 kPa, Liquid; for mass density: 298.1 K, Vibrating tube method; for speed of sound: 298.15 K, Anton Paar DSA 48
[2] = refractive index (Na D-line) (dimensionless); settings: 298.1 K, 101.33 kPa, Liquid

Row | mass density [1] [kg/m3] | speed of sound [1] [m/s] | refractive index ([2]; Anton Paar DSA 48) | refractive index ([2]; ATAGO RX-1000) | SMILES
1 | 757.57 ± 0.17 | 1113 ± 2 | 1.3917 ± 5e-05 | – | CCCCOC(C)(C)C [butane, 1-(1,1-dimethylethoxy)-]
2 | 785.22 ± 0.25 | 1143 ± 2 | – | 1.3592 ± 0.00011 | CCO [ethanol]
3 | 786.63 ± 0.25 | 1101 ± 2 | – | 1.3264 ± 0.0002 | CO [methanol]
4 | – | – | – | 1.3325 ± 8e-05 | O [water]
